Measurements: PMC11874377, “Fungal-derived methyldeoxaphomins target Plasmodium falciparum segregation through the inhibition of PfActin1” (Proceedings of the National Academy of Sciences of the …, 2025)
“And” between values parts separate entries of the source, which are not always exact repeats. Equal values may be shown once. Read-outs that look alike come from different tables or passages of the source.

Tests used:
[1] = tested on: P. falciparum chloroquine-sensitive line 3D7; assay: SYBR Green I-based antiplasmodial assay, asexual blood stage, 3D7; format: cell-based, Plasmodium falciparum
Method: (§1) The antiplasmodial activity of these analogs was assessed in P. falciparum asexual blood stage using a SYBR Green I-based assay. Compounds were tested in both the multidrug resistant line Dd2, and the chloroquine-sensitive line 3D7, to probe any potential for preexisting resistance. […] These methyldeoxaphomin analogs were also cross-screened for cytotoxicity in the human cell line HepG2 to determine their selectivity for the Plasmodium parasite. […] This effect was maintained with analog NPDG-F where both R1 and R2 were substituted with OH groups. […] In addition, the hydroxyl group at carbon 7 seems to be critical for function as a drastic loss of potency was found in NPDG-D as compared to B and C. […]
(§2) Plasmodium blood stage culture
(§3) Parasite culture in the Chakrabarti lab was maintained following a modified Trager and Jensen protocol (Trager & Jensen, 1976) as previously described (Lee et al., 2021) with RPMI 1640 with 25 mM HEPES pH 7.4, 26 mM NaHCO3, 15 mg/L hypoxanthine, 0.5% Albumax II, 25 mg/L gentamycin, and 2% dextrose. Parasites were grown with human A+ erythrocytes obtained from Florida OneBlood. Cultures were kept in an incubator with 5% […]
(§4) Antiplasmodial activity screening
(§5) SYBR Green I-based fluorescence assay was performed as previously described (Lee et al., 2021) following protocols by Smilkstein et. al. (Smilkstein et al., 2004). Asynchronous Dd2 parasites were added to serially diluted compounds and incubated for 72 h at 5% CO2, 95% air at 37°C. Plates were then frozen at -80°C, thawed, and incubated for one hour with 1x SYBR Green I in a lysis buffer (20 mM Tris-HCL, 0.08% saponin, 5 mM EDTA, and 0.8% Triton X-100). Fluorescence was then read on a Synergy Neo2 multimode reader (BioTek Winsooki, VT). […]

[2] = tested on: P. falciparum multidrug resistant line Dd2; assay: SYBR Green I-based antiplasmodial assay, asexual blood stage, Dd2; format: cell-based, Plasmodium falciparum
Method: as §1, §2, §3, §4, §5

[3] = tested on: human HepG2 hepatoma cells; assay: cells; format: cell-based
Method: as §1
Cytotoxicity was assessed using an MTS (3-(4,5-Dimethylthiazol-2-yl)-5-(3-carboxymethoxyphenyl)-2-(4-sulfophenyl)-2H-tetrazolium) absorbance assay with human HepG2 hepatoma cells. Cells were maintained in MEM supplemented with 10%FBS, 1% Antibiotic/Antimycotic, 1 mM sodium pyruvate, and 0.15% sodium bicarbonate in a 5 % CO2, 95% air environment at 37°C. For the assay cells were seeded at a density of 2,250 cells per well on 384-well microtiter plates 24 h prior to compound addition. Following a 48-h incubation with compounds, MTS solution was added to wells and absorbance was read after 2-4 h on a Synergy Neo2 multimode reader (BioTek Winsooki, VT). Compound dose response curves and EC50 determination was performed using CDD Vault normalized to 5% triton and vehicle controls. […]

P. falciparum [4] = assay: Isobologram assay with NPDG-F; format: cell-based, Plasmodium falciparum; settings: for IC50: single compounds, dose–response, Fig. 3A, read-out: Mean IC50 ± SEM; for relationship with NPDG-F at low concentrations: low / very low concentrations; for relationship with NPDG-F at higher concentrations: moderate to high / higher concentrations
Method: To further explore the relationship of NPDG-F with established actin-interfering drugs, an isobologram study was performed (Fig. 3). NPDG-F was added in combination with four inhibtors known to interfere with actin polymerization including a formin inhibitor SMIFH2, cofilin inhibitor SZ-3, F-actin targeting compound jasplakinolide, and G-actin targeting latrunculin B. The frontline antimalarial DHA was also added as a nonactin inhibitor control. After dose–response curves were generated (Fig. 3A), the fractional inhibitory concentrations (FICs) of NPDG-F and the combination drug were calculated and graphed. […]
as §2, §3, §4
as §5, with “VT). Compound dose response curves and EC50 determination was performed using CDD Vault normalized to 10 µM CQ and vehicle” for “VT).”
For isobologram assessment, inhibitors were tested using a 1:2 dilution with starting concentrations selected as 40 nM for DHA, 100 µM Latrunculin B, 100 µM SMIFH2, and 40 nM for jasplakinolide. These concentrations were selected to provide 2-3 points above […]
EC50s. The test inhibitor methyldeoxaphomin NPDG-F was then added in combination with the aforementioned inhibitors at concentrations ranging from 10 to 0.3125 µM. Dose-response curves were then generated for the available conditions where EC50s could be determined. The fractional inhibitor concentration of both compounds was then determined as described (Fivelman et al., 2004) for the available points and graphed on a scale of 0-1 also using Graphpad Prism version 10. […]

P. falciparum [5] = assay: Parasite reduction ratio (PRR); format: cell-based, Plasmodium falciparum; settings: 10 × EC50
Method: After a 24 h lag phase, only 10^0.64 parasites are killed within the first replication cycle (48 h). […] We also examined the in vitro killing rate in Dd2 through flow cytometric analysis. […]
Parasite reduction ratio adapted from protocol by Sanz et al (Sanz et al., 2012). In brief, early ring stage mono-infected RBCs at 106 were incubated with a 10 x EC50 concentration of NPDG-F, DHA, or atovaquone for either 24, 48, 72, 96, or 120 h. Following incubations, cells were washed and serially diluted. After 3 weeks, growth was determined via SYBR […]
Green I staining. […]

[6] = Plasmodium falciparum, 3D7, average ± SEM of three replicates, read-out: 3D7: Average EC50
[7] = Plasmodium falciparum, 3D7, individual replicates, read-out: 3D7: EC50
[8] = Plasmodium falciparum, 3D7, means from triplicate experiments ± SEM, read-out: 3D7 EC50
[9] = Plasmodium falciparum, DD2, 72 h, read-out: Dd2 EC50, means from triplicate experiments ± SEM, 72 h
[10] = Plasmodium falciparum, DD2, read-out: Dd2: Average EC50, average ± SEM of three replicates
[11] = Plasmodium falciparum, DD2, read-out: Dd2: EC50, individual replicates
[12] = Homo sapiens, HepG2, 48 h, means from triplicate experiments ± SEM, 48-h incubation, read-out: HepG2 EC50
[13] = Homo sapiens, HepG2, average ± SEM of three replicates, read-out: HepG2: Average EC50
[14] = Homo sapiens, HepG2, individual replicates, read-out: HepG2: EC50
[15] = individual replicates, read-out: HepG2: EC50

Compound | EC50 [1, 6] | EC50 [1, 7] | EC50 [1, 8] | EC50 [2, 9] | EC50 [2, 10] | EC50 [2, 11] | EC50 [3, 12] | EC50 [3, 13] | EC50 [3, 14] | also measured
CC1CC=CC2C=C(CO)C(C)C3C(Cc4ccccc4)NC(=O)C23C(=O)C=CC(=O)C(O)C(C)C1 (stereo not shown) [Methyldeoxaphomin NPDG-D] | > 5 µM | > 5 µM | > 5 µM | > 5 µM | > 5 µM | > 5 µM | 8.2 µM | 8.2 ± 0.07 µM | 8.3 µM | EC50 [3, 15]: 8.1 µM
C=C1C(C)C2C(Cc3ccccc3)NC(=O)C23C(=O)C=CC(O)CC(C)CC(C)CC=CC3C1O (stereo not shown) [Methyldeoxaphomin NPDG-E] | 2.8 ± 0.14 µM | 2.67 µM | 2.8 ± 0.14 µM | 2.6 µM | 2.6 ± 0.31 µM | 2.22 µM | 23 µM | 23 ± 0.92 µM | 21.3 µM | EC50 ([1]; individual replicates, read-out: 3D7: EC50): 2.6 µM and 3.04 µM; EC50 ([2]; read-out: Dd2: EC50, individual replicates): 3.18 µM and 2.28 µM; Selectivity Index (SI) ([3]; HepG2 EC50/(mean of Dd2 EC50, 3D7 EC50)): 9; EC50 [3, 15]: 24.7 µM and 23.2 µM
C/C1=C/C(=O)O[C@@H]2C[C@@H](CC[C@H](C)/C=C\CC1)O[C@@](O)([C@@H]1CSC(=O)N1)C2 [latrunculin B] |  |  |  |  |  |  |  |  |  | fractional inhibitory concentration (FIC) (P. falciparum [4]; combination with NPDG-F): highest FIC values overall; IC50 (P. falciparum [4]): 34.1 ± 1.51 µM
C=C1[C@@H](C)[C@H]2[C@H](Cc3ccccc3)NC(=O)[C@]23C(=O)/C=C/C(=O)C[C@@H](C)C[C@H](C)C/C=C/[C@H]3[C@@H]1O [Methyldeoxaphomin NPDG-A] | > 5 µM | > 5 µM | > 5 µM | > 5 µM | > 5 µM | > 5 µM | > 25 µM | > 25 µM | > 25 µM | cytotoxicity in HepG2 at the highest concentration tested ([3]; 25 µM): no inhibition
O=C1NC(=S)N(c2cccc(Br)c2)C(=O)/C1=C/c1ccco1 [SMIFH2] |  |  |  |  |  |  |  |  |  | relationship with NPDG-F at low concentrations (P. falciparum [4]): primarily indifferent; relationship with NPDG-F at higher concentrations (P. falciparum [4]): antagonistic; IC50 (P. falciparum [4]): 11.3 ± 1.35 µM
O=C1C(O)=C([C@H]2CC[C@H](c3ccc(Cl)cc3)CC2)C(=O)c2ccccc21 [atovaquone] |  |  |  |  |  |  |  |  |  | 99.9% PCT (parasite clearance time) (P. falciparum [5]): more than 96 h; lag phase (P. falciparum [5]): 24 h; log(PRR) (P. falciparum [5]): 5.12
C[C@H]1[C@@H](O)O[C@@H]2O[C@@]3(C)CC[C@H]4[C@H](C)CC[C@@H]1[C@@]24OO3 [DHA, dihydroartemisinin] |  |  |  |  |  |  |  |  |  | 99.9% PCT (parasite clearance time) (P. falciparum [5]): 32.5 h; lag phase (P. falciparum [5]): 0 h; IC50 (P. falciparum [4]; Plasmodium falciparum): 0.005 ± 0.001 µM; relationship with NPDG-F at low concentrations (P. falciparum [4]): somewhat synergistic; relationship with NPDG-F at higher concentrations (P. falciparum [4]): antagonistic
